This passage reports IC50 results from PubChem BioAssay AID651996 (Sanford-Burnham Center for Chemical Genomics, 2013).

Structures are written as SMILES. Active and inactive are the calls of the source.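 The calls were made as follows: active = compounds whose half-maximal inhibitory concentration of the SKN-1 reporter ratio in worms is 20 µM or lower; inactive = the rest.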

The assay deals with C. elegans VP596 Pgst-4::GFP/RFP ratio, acrylamide-induced, 24 h. Nature of the assay: structure-activity of worm SKN-1 blockers – whole organism, GFP/RFP fluorescence ratio, strain VP596, SAR follow-up (AID 651996).
With `O=C(Nc1nc(-c2ccccc2)cs1)c1cccs1`, the IC50 (as a rule, the concentration that inhibits the measured activity by half) was 16.9 µM.

Take `COc1ccc(C(=O)Nc2nc(-c3cccs3)cs2)cc1`: the IC50 is 28.9 µM (inactive).

As for `COc1cc(CNC(C)(C)CO)cc(Br)c1OCc1ccc(Cl)cc1`, the IC50 is 26.2 µM (inactive).

On to `O=C(/C=C/Nc1ccc(F)c(Cl)c1)c1ccco1`, for which the IC50 is 12.5 µM.

In the case of `Brc1ccc(CSc2nnc(-c3ccco3)o2)cc1`, the half-inhibitory concentration (IC50) is 7.06 µM.

In the case of `Fc1ccc(-c2csc(-c3ccncc3)n2)cc1`, the IC50 was 1.58 µM.

Turning to `Cc1ccc(N=C/C(C(=O)C(F)(F)F)=C(\O)c2ccco2)cc1Cl`, the IC50 was 33.1 µM (inactive).

As for `Cc1nc2ccccc2cc1OCc1ccc(F)cc1`, the half-maximal inhibitory concentration (IC50) is 7.88 µM.

`CCOc1ccc(-c2nc(-c3cccnc3)no2)cc1`: the IC50 is 9.89 µM.

For the molecule `c1ccc(SCc2cc(-c3ccccc3)no2)cc1`, the half-inhibitory concentration (IC50) was 7.39 µM.

Turning to `Clc1ccccc1-c1nc(-c2ccncc2)no1`, the half-inhibitory concentration (IC50) is 7.94 µM.

On to `CC(C)c1ccc(C(=O)Nc2ccc(CN3CCOCC3)cc2)cc1`, for which the IC50 is 4.74 µM.

Turning to `c1ccc(-c2nc(-c3ccncc3)no2)cc1`, the IC50 is 6.15 µM.

In the case of `Brc1ccc(CSc2nnc(-c3cccnc3)o2)cc1`, the 50% inhibitory concentration (IC50) is 19.1 µM.

Regarding `O=C(Nc1nc2c(ccc3ccccc32)s1)c1ccco1`, the half-inhibitory concentration (IC50) was 16.9 µM.

In the case of `c1ccc(-c2csc(-c3ccncc3)n2)cc1`, the IC50 is 7.34 µM.

Turning to `c1ccc2oc(SCc3nc4ccccc4s3)nc2c1`, the half-maximal inhibitory concentration (IC50) was 15.5 µM.

With `c1ccc(Nc2nc(-c3cccs3)cs2)nc1`, the IC50 was 13.8 µM.

On to `Brc1ccc(-c2nnc(-c3ccco3)o2)cc1`, for which the IC50 is 13.8 µM.

For `O=C(Nc1ccc(CN2CCOCC2)cc1)c1cc2ccccc2o1`, the IC50 is 18 µM.

On to `Cc1cc(OCc2cccc(Cl)c2)c(C)cc1CN1CCOCC1`, for which the half-maximal inhibitory concentration (IC50) is 7.19 µM.

As to `Clc1ccc(-c2nnc(-c3ccccc3)o2)c(Cl)c1`, the concentration for half-maximal inhibition (IC50) was 0.64 µM.

`CCc1ccc(-c2nc(-c3ccncc3)no2)cc1`: the IC50 is 11.8 µM.

Regarding `c1ccc2sc(SCc3ccc(-c4nnco4)cc3)nc2c1`, the half-maximal inhibitory concentration (IC50) is 10.5 µM.

With `O=C(/C=C/c1cccs1)c1ccc(Br)cc1`, the IC50 is 12.4 µM.

Consider `O=C(/C=C/Nc1ccccc1F)c1cccs1`, for which the IC50 is 23.2 µM (inactive).

Consider `CCOc1cc(CNC2CCCC2)cc(Cl)c1OCc1ccccc1`, for which the concentration for half-maximal inhibition (IC50) was 9.86 µM.

`O=C(Nc1nccs1)c1ccc2ccccc2n1`: the half-maximal inhibitory concentration (IC50) was 6.84 µM.

As to `CCOc1cc(CNC2CCCC2)cc(Cl)c1OCc1ccc(F)cc1`, the IC50 was 4.49 µM.

Take `Clc1ccccc1-c1nnc(-c2ccccc2Cl)o1`: the IC50 was 24.9 µM (inactive).

Consider `Brc1ccc(-c2nc(-c3ccccc3)no2)o1`, for which the IC50 was 8.64 µM.

For the molecule `Fc1ccc(COc2ccc(-c3nnco3)cc2)c(Cl)c1`, the 50% inhibitory concentration (IC50) was 2.25 µM.

Take `COc1cc(CNC(C)c2ccccc2)cc(Br)c1OCc1ccc(F)cc1` (configuration not stated): the IC50 is > 64 µM (inactive).

Turning to `c1ccc(-c2csc(Nc3ccccn3)n2)cc1`, the IC50 was 8.17 µM.

On to `O=C(/C=C/Nc1ccc(F)cc1F)c1ccco1`, for which the IC50 is 23.3 µM (inactive).

As to `O=C(/C=C/Nc1ccc(Br)cc1F)c1ccco1`, the IC50 was 12.2 µM.

`Fc1ccc(-c2csc(Nc3ccccn3)n2)cc1`: the concentration for half-maximal inhibition (IC50) is 3.81 µM.

Take `CCOc1cc(CNCCSc2nnnn2C)cc(Br)c1OCc1ccc(F)cc1`: the IC50 was 17 µM.

Turning to `Cc1ccc(-c2noc(-c3cccs3)n2)cc1`, the IC50 is 10.7 µM.

Regarding `COc1cc(CNC2CCCC2)cc(Cl)c1OCc1ccc(F)cc1`, the 50% inhibitory concentration (IC50) is 7.21 µM.

Turning to `O=C(Nc1nc(-c2ccc(Cl)s2)cs1)c1cccs1`, the IC50 is 58.9 µM (inactive).

As to `O=C(Nc1nc(-c2ccc(Cl)s2)cs1)c1ccco1`, the 50% inhibitory concentration (IC50) is 8.95 µM.

For `Cc1ccc(CSc2nnc(-c3ccco3)o2)cc1`, the IC50 was 22.7 µM (inactive).

Regarding `O=C(/C=C/c1ccc(Br)cc1)c1ccc(NC2=NCCCS2)cc1`, the IC50 was 9.32 µM.

Regarding `CCOC(=O)c1c(-c2ccc(-c3ccccc3)cc2)csc1NC(=O)CNCCN(C)C`, the IC50 was 10.9 µM.

As to `Cc1oc(-c2ccc(-c3ccccc3)cc2)nc1CN(C)C1CCOC1` (configuration not stated), the IC50 was 15.5 µM.

For the molecule `CCOC(=O)Nc1nc(-c2ccc(F)cc2F)cs1`, the IC50 is 4.63 µM.

Consider `O=C(Nc1nc(-c2ccc(Cl)s2)cs1)c1ccccc1`, for which the IC50 was 13 µM.

Consider `O=C(/C=C/Nc1ccc(F)c(F)c1)c1cccs1`, for which the IC50 is 14.3 µM.

For the molecule `Fc1ccc(COc2ccc(-c3nnco3)cc2)cc1`, the 50% inhibitory concentration (IC50) is 4.14 µM.

Turning to `O=C(/C=C/Nc1ccc(F)cc1F)c1cccs1`, the IC50 is 8.44 µM.

In the case of `CSc1cccc(NC(=O)c2cccc3cccnc23)c1`, the half-maximal inhibitory concentration (IC50) was 9.32 µM.

For the molecule `Cc1ccccc1-c1noc(-c2cccs2)n1`, the half-maximal inhibitory concentration (IC50) is 6.42 µM.

For the molecule `O=C(/C=C/c1ccccc1)Nc1ccc(CN2CCOCC2)cc1`, the half-inhibitory concentration (IC50) was 14.8 µM.

Regarding `Clc1ccc(-c2nnc(-c3ccco3)o2)cc1`, the IC50 is 14.3 µM.

Take `Clc1ccc(Nc2nc(-c3cccs3)cs2)nc1`: the concentration for half-maximal inhibition (IC50) was 8.93 µM.

Regarding `Cc1ccc(Nc2nc(-c3cccs3)cs2)nc1`, the IC50 was 21.8 µM (inactive).
